Entries after “also recorded” stand apart in the source; their conditions may differ.
Assays:
[1] = tested on: P. vivax liver stages in PHH; test: P. vivax infection of primary human hepatocytes (PHH), quantification of extraerythrocytic forms by IFA; format: cell-based, Plasmodium vivax; details: 0.1 μM after day 3 post-infection, fixed day 6
Procedure: Primary human hepatocytes (BioIVT) were plated and infected in chamber slides as previously described (Schafer C, et al. A Humanized Mouse Model for Plasmodium vivax to Test Interventions that Block Liver Stage to Blood Stage Transition and Blood Stage Infection. […] 23, 101381 (2020)). Briefly, 8-well PermanoxTM slides (LabTek) were coated with collagen (Advanced Biomatrix) and seeded with 1.25×10^5 viable cells using InVitroGROTM CP medium (BioIVT) supplemented with 2% FBS without antibiotics (plating media). Four hours later, plating media was replaced with InVitroGROTM CP containing antibiotics (1× Torpedo Antibiotic Mix with 10 μM gentamycin) without serum (maintenance media). Two days after plating, cells were infected with freshly dissected P. vivax salivary gland sporozoites (MOI=1.0) for four hours in maintenance media supplemented with 20% FBS. Cells were washed once, and maintenance media replaced daily thereafter and stored at -80° C. for EV analysis. After day 3 post-infection, cultures were treated with 0.1 μM MMV048 or 0.1% DMSO as vehicle (FIG. 5). On day 6-post infection, cells were fixed and analyzed by IFA. Total extraerythrocytic forms (EEF) and schizont/hypnozoite numbers and ratio were quantified. IFA analysis of PHH and liver sections of FRG huHep mice was performed as described (Schafer C, et al. A Humanized Mouse Model for Plasmodium vivax to Test Interventions that Block Liver Stage to Blood Stage Transition and Blood Stage Infection. iScience 23, 101381 (2020); Schafer C, et al. A recombinant antibody against Plasmodium vivax UIS4 for distinguishing replicating from dormant liver stages. […] 17, 370 (2018)). Briefly, culture cells and liver tissue were fixed in 4% paraformaldehyde in TBS for 10 min (PHH) and 16 hours (liver sections). PHH were blocked and permeabilized in TBS with 2% bovine serum albumin and 0.2% Triton-X-100 (PBS/BSA/Triton). FRG huHep fixed livers were sectioned in 50 μm thick sections in a vibratome. […]

P. vivax liver stages = test: P. vivax infection of FRG huHep mice, quantification of liver stages by IFA; format: in vivo, Plasmodium vivax
Procedure: All animal procedures were conducted in accordance with and approved by the Center for Infectious Disease Research Institutional Animal Care and Use Committee (IACUC). The Center for Infectious Disease Research IACUC adheres to the NIH Office of Laboratory Animal Welfare standards (OLAW welfare assurance #A3640-01). Female FRG KO mice engrafted with human hepatocytes (FRG KO huHep) were purchased from Yecuris Corporation (Oregon, USA). P. vivax infections of FRG huHEP were performed as previously described. Briefly, mice were divided in five experimental groups. Group 1 (3 mice) was not infected. Group 2 (6 mice) was inoculated with P. vivax sporozoites by the bite of 20 mosquitos and euthanized after 8 days post-infection (dpi). Group 3 (6 mice) was infected by intravenous injection of P. vivax sporozoites (0.8 million) and euthanized after 8 dpi. Group 4 (6 mice) was infected by intravenous injection of P. vivax sporozoites (1 million sporozoites) and euthanized after 21 dpi. Group 5 (3 mice) was infected by intravenous injection (1 million sporozoites) and treated with Tafenoquine (10 mg/kg) at 14 dpi and euthanized at 21 dpi. MMV048 (Novartis) mice treatment (30 mg/kg) was performed as follows: three mice from Groups 2 and 3 received intravenous injections of the drug at 4 dpi; three mice from Group 4 received intravenous injections of the drug at 17 dpi. Three DMSO-treated animals were used as controls in groups 2, 3 and 4. After euthanasia, livers were extracted for characterization by IFA and RT-qPCR and whole blood was extracted by cardiac venipuncture for plasma collection as previously described (Schafer C, et al. A recombinant antibody against Plasmodium vivax UIS4 for distinguishing replicating from dormant liver stages. […] 17, 370 (2018)). IFA analysis of PHH and liver sections of FRG huHep mice was performed as described (Schafer C, et al. A Humanized Mouse Model for Plasmodium vivax to Test Interventions that Block Liver Stage to Blood Stage Transition and Blood Stage Infection. iScience 23, 101381 (2020); Schafer C, et al. A recombinant antibody against Plasmodium vivax UIS4 for distinguishing replicating from dormant liver stages. […] 17, 370 (2018)). Briefly, culture cells and liver tissue were fixed in 4% paraformaldehyde in TBS for 10 min (PHH) and 16 hours (liver sections). PHH were blocked and permeabilized in TBS with 2% bovine serum albumin and 0.2% Triton-X-100 (PBS/BSA/Triton). FRG huHep fixed livers were sectioned in 50 μm thick sections in a vibratome. Tissue sections were then permeabilized in 0.25% Triton X-100 and 3% H2O2 for 30 min followed by a blocking step in 5% skim milk in TBS for 1 hour at RT. […]

P. vivax = test: 18S qRT-PCR analysis of liver parasite load in infected FRG huHep mice; format: in vivo, Plasmodium vivax; details: for parasite load, 18S rRNA in liver tissue by RT-qPCR: compared to DMSO
Procedure: All animal procedures were conducted in accordance with and approved by the Center for Infectious Disease Research Institutional Animal Care and Use Committee (IACUC). The Center for Infectious Disease Research IACUC adheres to the NIH Office of Laboratory Animal Welfare standards (OLAW welfare assurance #A3640-01). Female FRG KO mice engrafted with human hepatocytes (FRG KO huHep) were purchased from Yecuris Corporation (Oregon, USA). P. vivax infections of FRG huHEP were performed as previously described. Briefly, mice were divided in five experimental groups. Group 1 (3 mice) was not infected. Group 2 (6 mice) was inoculated with P. vivax sporozoites by the bite of 20 mosquitos and euthanized after 8 days post-infection (dpi). Group 3 (6 mice) was infected by intravenous injection of P. vivax sporozoites (0.8 million) and euthanized after 8 dpi. Group 4 (6 mice) was infected by intravenous injection of P. vivax sporozoites (1 million sporozoites) and euthanized after 21 dpi. Group 5 (3 mice) was infected by intravenous injection (1 million sporozoites) and treated with Tafenoquine (10 mg/kg) at 14 dpi and euthanized at 21 dpi. MMV048 (Novartis) mice treatment (30 mg/kg) was performed as follows: three mice from Groups 2 and 3 received intravenous injections of the drug at 4 dpi; three mice from Group 4 received intravenous injections of the drug at 17 dpi. Three DMSO-treated animals were used as controls in groups 2, 3 and 4. After euthanasia, livers were extracted for characterization by IFA and RT-qPCR and whole blood was extracted by cardiac venipuncture for plasma collection as previously described (Schafer C, et al. A recombinant antibody against Plasmodium vivax UIS4 for distinguishing replicating from dormant liver stages. Malar J 17, 370 (2018)).
Liver parasite load from infected FRG huHEP mice was quantified as previously described (Flannery E L, et al. Assessing drug efficacy against Plasmodium falciparum liver stages in vivo. JCI Insight 3, (2018)).

Plasmodium spp. = details: preclinical studies; cited from earlier work
[2] = tested on: P. cynomolgi liver hypnozoites; details: radical cure mode, both in vitro and in vivo; cited from earlier work
[3] = group 4: intravenous infection, treated at 17 dpi, livers collected 21 dpi
[4] = group 5: 10 mg/kg at 14 dpi, euthanized 21 dpi

Compound	hypnozoites by IFA [1]	schizonts by IFA ([1]; compared to DMSO)	total extraerythrocytic forms (EEF) by IFA ([1]; compared to DMSO-treated cells)	number of schizonts in liver by IFA (P. vivax liver stages; 30 mg/kg intravenous, groups 2, 3 and 4, compared to control mice)	hypnozoites in liver by IFA (P. vivax liver stages; [3])	schizonts in liver by IFA (P. vivax liver stages; [3])	parasite load, 18S rRNA in liver tissue by RT-qPCR (P. vivax; day 21, group 4)	parasite load, 18S rRNA in liver tissue by RT-qPCR (P. vivax; mosquito bite and intravenous infection, treated at 4 dpi, analyzed 8 dpi)	activity against asexual, transmission and liver stages (Plasmodium spp.)	activity against liver hypnozoites [2]	liver forms by IFA (P. vivax liver stages; [4])	parasite 18S rRNA in liver by RT-qPCR (P. vivax; [4])
CS(=O)(=O)c1ccc(-c2cnc(N)c(-c3ccc(C(F)(F)F)nc3)c2)cc1 [MMV048]	resistance of hypnozoites to the drug	no schizonts were observed; also recorded: removed schizonts	significant reduction	significantly lower number of schizonts; also recorded: removed schizonts	only one hypnozoite was detected	no schizonts	no differences	significantly reduced parasite load	potent activity	ineffective		
COc1cc(C)c2c(Oc3cccc(C(F)(F)F)c3)c(OC)cc(NC(C)CCCN)c2n1 (stereo not drawn) [Tafenoquine]											no liver forms were quantified	presence of parasite 18S rRNA

Source: patent publication US20230045390A1, “PLASMODIUM VIVAX MALE GAMETE FUSION PROTEIN PVHAP2 AND THE PUTATIVE PROLIFERATING-CELL NUCLEOLAR ANTIGEN P120 AS RELAPSE BIOMARKERS” (Seattle Children's Hospital dba Seattle Children's Research …, priority 2021, published 2023)
